The results in this text go back to patent US20230285570A1, “THERAPEUTICALLY USEFUL CURE-PRO MOLECULES FOR E3 LIGASE MEDIATED DEGRADATION OF PROTEINS, AND METHODS OF MAKING AND USING THEM” (CORNELL UNIVERSITY, priority 2020, published 2023).

“Also recorded” adds a separate entry of the source.

One assay concerns SLC19A1. Briefly: RT-PCR of c-MYC downstream target gene SLC19A1 in HeLa cells. It counts as cell-based, Human. The note with it: 10 μM each, 24 h. How it is done:
The suppression of the expression of the downstream c-MYC target, SLC19A1, was measured by RT-PCR using Power SYBR® Green Cells-to-Ct™ Kit (Life Technologies). Adherent cells were plated on 96 well plates at 5,000 cells per well were treated for 24 h with monomer compounds and compounds capable of reversible interactions (1 nM-100 μM). Cells were subsequently washed in ice-cold PBS processed according to the manufacturer's instructions. Quantitative real-time PCR was performed using a ViiA™ 7 Real-time PCR System (Applied Biosystems, Foster City, Calif., USA). GAPDH and ACTB served as internal controls.
HeLa cells (1×10^4) were treated for 24 hours in 96 well plates with the compounds solubilized in DMSO. Compounds were added at 10 μM each and RNA expression measured by the Cells-to Ct method described above (Thermofisher).

The next assay concerns the target T1, BRD2 (Homo sapiens, UniProt P25440).
T1 construct: endogenous in cells; host or cells: HCT116
Briefly: BRD protein family degradation in HCT116 cells, Western blot: BRD2. The assay is classed as cell-based. The conditions noted are these: 1:1 with MDM2 ligands 8310 and 8312 (each), HCT116, 24 h, 100 nM-10 μM. How it is done: Namalwa, Ramosm HeLa, MCF7, or HT29 HCT116 cells (2.5-3×10^6) were treated for 24 hours with the indicated compounds solubilized in DMSO. The cells were washed in ice-cold PBS and were then lysed in RIPA lysis buffer (150 mM NaCl, 5 mM EDTA, 1% NP-40, 0.5% sodium deoxycholate, 0.1% SDS, 50 mM Tris, pH 8.0.) with Roche protease inhibitor complete cocktail and phosphatase inhibitors (10 mM sodium fluoride, 10 mM sodium pyrophosphate, 1 mM sodium orthovanadate and 20 mM β-glycerophosphate). The total protein concentrations were determined by Bradford Protein Assay (Pierce) and 10-20 μg of protein was loaded onto 4-15% Tris-Glycine gradient gels (Biorad). After standard gel electrophoresis, the separated proteins were transferred to PVDF membrane by wet transfer. The immunoblots were then blocked for 1 hour in 5% skim milk in TBST or 5% BSA in TBST, according to manufacturer's instructions, before an overnight incubation at 4° C. with indicated antibodies and membranes. […] Signal was detected with ECL Western Blotting Substrate (Pierce) and X-ray film processed with a Konica SRX-101 X-ray film processor or captured by Bio-Rad's Chemidoc Imaging system. […]
Background: In western blotting, separated proteins are transferred to a membrane and probed.

The target in assay [1] is T2, BRD4 (Homo sapiens, UniProt O60885). Nature of the assay: BRD protein family degradation in HCT116 cells, Western blot: BRD4. It counts as cell-based. Details: endogenous in cells. How it is done:
(§1) Namalwa, Ramosm HeLa, MCF7, or HT29 HCT116 cells (2.5-3×10^6) were treated for 24 hours with the indicated compounds solubilized in DMSO. The cells were washed in ice-cold PBS and were then lysed in RIPA lysis buffer (150 mM NaCl, 5 mM EDTA, 1% NP-40, 0.5% sodium deoxycholate, 0.1% SDS, 50 mM Tris, pH 8.0.) with Roche protease inhibitor complete cocktail and phosphatase inhibitors (10 mM sodium fluoride, 10 mM sodium pyrophosphate, 1 mM sodium orthovanadate and 20 mM β-glycerophosphate). The total protein concentrations were determined by Bradford Protein Assay (Pierce) and 10-20 μg of protein was loaded onto 4-15% Tris-Glycine gradient gels (Biorad). After standard gel electrophoresis, the separated proteins were transferred to PVDF membrane by wet transfer. The immunoblots were then blocked for 1 hour in 5% skim milk in TBST or 5% BSA in TBST, according to manufacturer's instructions, before an overnight incubation at 4° C. with indicated antibodies and membranes. Membranes were then incubated with the appropriate horseradish peroxidase-conjugated secondary antibodies (1:5,000 dilution) for 1 h at room temperature and the bands were visualized using the Clarity Max Western ECL Substrate (Biorad) and the ChemiDoc Imaging System (Biorad). Signal was detected with ECL Western Blotting Substrate (Pierce) and X-ray film processed with a Konica SRX-101 X-ray film processor or captured by Bio-Rad's Chemidoc Imaging system.
HCT116 cells (3×10^6) were treated for 24 hours with the compounds solubilized in DMSO. Compounds were added at 100 nM-10 μM each. Standardized protein samples were electrophoresed and imaged as described in the Immunoblotting section above. FIGS. 64 and 65 depict the concentration-dependence of CURE-PRO-mediated BRD2 and BRD3 degradation using MDM2 ligands.

For assay [2], the target named is T2, BRD4. Nature of the assay: CURE-PRO-mediated BRD4 degradation in MCF7 cells, Western blot. The assay is classed as cell-based. Details: endogenous in cells. The note with it: 1:1 with VHL ligand 8305, MCF7, 24 h, 100 nM-10 μM. On the procedure: as §1
MCF7 cells (3×10^6) were treated for 24 h with the compounds solubilized in DMSO. Compounds were added at 100 nM-10 μM. Standardized protein samples were electrophoresed and imaged as described in the Immunoblotting section above. FIG. 69 depicts the CURE-PRO-mediated BRD4 degradation for the BRD-E9 monomer and VHL ligands 8305 combined in a 1:1 ratio, and FIG. 70 depicts the CURE-PRO-mediated BRD4 degradation for the BRD-E20 monomer and 8305.
MCF7 cells (3×10^6) were treated for 24 h with the compounds solubilized in DMSO. Compounds were added at 1 μM-10 μM. Standardized protein samples were electrophoresed and imaged as described in the Immunoblotting section above. FIG. 71 depicts the CURE-PRO-mediated BRD4 degradation for the BRD-E50 monomer and VHL ligands 8305 and 8304 combined in a 1:1 ratio.

The next assay has as its system MV-4-11 cells. Nature of the assay: CellTiter-Glo cell viability, MV-4-11 cells. It counts as cell-based. The conditions noted are these: cotreated 1:1 with each of CRBN ligands 8046, 8047 and 8066, MV-4-11, 72 h, 10 nM-100 μM. In outline: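 Viability by CellTiter-Glo luminescence. One protocol: 5×10^4 MV-4-11 cells, 24 h, compounds at 1 nM-100 μM each; other: 1×10^4 cells, 72 h, 10 nM-100 μM each. BRD ligands combined 1:1 with CRBN ligands; dose-response curves fitted.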
On the technique in general: ATP-based viability assays read luminescence as a measure of living cells.

T1 sequence (P25440 whole entry): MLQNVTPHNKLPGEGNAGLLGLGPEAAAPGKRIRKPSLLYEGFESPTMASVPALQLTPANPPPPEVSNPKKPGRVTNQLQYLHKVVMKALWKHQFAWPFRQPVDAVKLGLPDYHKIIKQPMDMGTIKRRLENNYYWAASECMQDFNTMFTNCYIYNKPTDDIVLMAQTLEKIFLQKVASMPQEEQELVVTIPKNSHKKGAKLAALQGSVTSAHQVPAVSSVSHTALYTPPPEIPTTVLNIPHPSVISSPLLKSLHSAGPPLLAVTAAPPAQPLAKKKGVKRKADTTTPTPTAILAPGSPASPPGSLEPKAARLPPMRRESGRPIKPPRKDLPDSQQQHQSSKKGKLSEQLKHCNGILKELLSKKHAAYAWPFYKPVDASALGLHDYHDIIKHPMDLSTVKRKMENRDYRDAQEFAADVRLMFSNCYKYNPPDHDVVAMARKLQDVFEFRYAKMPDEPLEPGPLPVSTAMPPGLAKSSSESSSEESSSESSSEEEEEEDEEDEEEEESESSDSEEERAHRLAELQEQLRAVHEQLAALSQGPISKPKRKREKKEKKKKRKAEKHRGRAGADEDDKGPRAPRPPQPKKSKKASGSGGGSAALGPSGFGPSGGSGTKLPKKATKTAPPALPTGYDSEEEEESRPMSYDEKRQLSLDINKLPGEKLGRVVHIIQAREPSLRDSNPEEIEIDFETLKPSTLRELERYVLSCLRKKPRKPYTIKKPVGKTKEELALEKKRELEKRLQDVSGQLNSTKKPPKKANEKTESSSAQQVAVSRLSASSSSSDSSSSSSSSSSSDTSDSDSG

Take `CCNC(=O)C[C@@H]1N=C(c2ccc(Cl)cc2)c2cc(OCCOCCNC(=O)c3cccc(O)c3O)ccc2-n2c(C)nnc21` [BRD-N39, N-(2-(2-(((4S)-6-(4-chlorophenyl)-4-(2-(ethylamino)-2-oxoethyl)-1-methyl-4H-benzo[f][1,2,4]triazolo[4,3-a][1,4]diazepin-8-yl)oxy)ethoxy)ethyl)-2,3-dihydroxybenzamide]: the “suppression of SLC19A1 expression” value is recorded as “suppression to levels comparable to that of JQ1 treatment” in the assay with SLC19A1 (combined with MDM2 ligand 8310, HeLa) and “Complete suppression; also recorded: completely suppressed” in the assay with SLC19A1 (combined with MDM2 ligand 8312, HeLa). The BRD2 degradation result on BRD2 is recorded as “BRD2 to a lesser extent; also recorded: Degradation is evident”. Also, at BRD4 [1] (1:1 with MDM2 ligands 8310 and 8312 (each), HCT116, 24 h, 100 nM-10 μM), the BRD4 degradation result is “caused BRD4 degradation; also recorded: Degradation is evident”. Also, the “selectivity of degradation among BRD2, BRD3 and BRD4” value at BRD4 [1] (with MDM2 ligands 8310 and 8312, HCT116, Western blot) is “some selectivity for BRD4 over BRD2 and BRD3 is noted”.
In the case of `CCNC(=O)C[C@@H]1N=C(c2ccc(Cl)cc2)c2cc(OCCCCC(=O)Nc3cccc(B(O)O)c3)ccc2-n2c(C)nnc21` [BRD-E20, (3-(5-(((4S)-6-(4-chlorophenyl)-4-(2-(ethylamino)-2-oxoethyl)-1-methyl-4H-benzo[f][1,2,4]triazolo[4,3-a][1,4]diazepin-8-yl)oxy)pentanamido)phenyl)boronic acid], the BRD4 degradation entry on BRD4 [2] was “there is degradation of BRD4”. Besides, in the assay on MV-4-11 cells, the “loss of cellular viability (toxicity) versus monomers alone” value is recorded as “reduced viability; also recorded: increased toxicity”.
